How the values were obtained:
[1] = system: H69AR (multidrug-resistant small cell lung carcinoma); assay: Cytotoxic activity assay (MTT); format: cell-based, human; details: for IC50: Homo sapiens, H69AR, 48 h exposure, MTT, read-out: Cell lines, IC50 (μM) H69AR; for Selectivity Index (SI) values H69AR: SI = IC50 normal cell (MRC-5)/ IC50 cancer cell
From the text: (§1) The synthetic compounds were screened for their cytotoxic activity using standard MTT or XTT methods[30] against a panel of nine human cancer cell lines and one normal cell line, including MDA-MB-231 (triple-negative breast cancer), T-47D (hormone-dependent breast cancer), HepG2 (hepatocellular carcinoma), A549 (lung adenocarcinoma), H69AR (multidrug-resistant small cell lung carcinoma), HuCCA-1 (cholangiocarcinoma derived from a patient), HeLa (cervical carcinoma), and two leukemia cell lines, HL-60 (acute promyelocytic leukemia) and MOLT-3 (T cell acute lymphoblastic leukemia). MRC-5 normal embryonic lung fibroblast cell line was used to represent normal cells. Chemotherapeutic drugs, doxorubicin and etoposide, were used as positive controls.
(§2) The cells were seeded into 96-well plates (100 µL for adherent cells and 75 µL for suspended cells) at a density of 5000–20,000 cells per well, depending on their growth rates. Adherent and suspended cells were then allowed to grow at 37 °C with 95% humidity and 5% CO2 for 24 h and 30 min, respectively. The cytotoxicity assay was initiated by adding an equal volume of cell culture medium containing tested compound at predetermined concentrations. Following 48 h of exposure, cell viability was determined using MTT assay for adherent cells[51],[52]or XTT assay for suspeended cells. Briefly, for adherent cells, 100 µL of the MTT reagent was added to each well, and the microtiter plates were further incubated for 2.5–4 h. The medium was subsequently replaced with 100 µL of DMSO to dissolve the purple formazan before the absorbance at 550 nm was measured using a microplate reader (a SpectraMax Plus 384) with a reference wavelength of 650 nm. For suspended cells, 75 µL of the XTT reagent was added to each well, and the cells were further incubated for 4 h. Afterwards, the absorbance of orange formazan at 492 nm was measured with a reference wavelength of 690 nm using a microplate reader.

[2] = system: HeLa (cervical carcinoma); assay: Cytotoxic activity assay (MTT); format: cell-based, human; details: for IC50: Homo sapiens, 48 h exposure, MTT, read-out: Cell lines, IC50 (μM) HeLa; for Selectivity Index (SI) values HeLa: SI = IC50 normal cell (MRC-5)/ IC50 cancer cell
From the text: as §1, §2

[3] = system: MDA-MB-231 (triple-negative breast cancer); assay: Cytotoxic activity assay (MTT); format: cell-based, human; details: for IC50: Homo sapiens, MDA-MB-231, 48 h exposure, MTT, read-out: Cell lines, IC50 (μM) MDA-MB-231; for Selectivity Index (SI) values MDA-MB-231: SI = IC50 normal cell (MRC-5)/ IC50 cancer cell
From the text: as §1, §2

[4] = system: HepG2 (hepatocellular carcinoma); assay: Cytotoxic activity assay (MTT); format: cell-based, human; details: for IC50: Homo sapiens, HepG2, 48 h exposure, MTT, read-out: Cell lines, IC50 (μM) HepG2; for Selectivity Index (SI) values HepG2: SI = IC50 normal cell (MRC-5)/ IC50 cancer cell
From the text: as §1, §2

[5] = system: T-47D (hormone-dependent breast cancer); assay: Cytotoxic activity assay (MTT); format: cell-based, human; details: for IC50: Homo sapiens, T47D, 48 h exposure, MTT, read-out: Cell lines, IC50 (μM) T47-D; for Selectivity Index (SI) values T47-D: SI = IC50 normal cell (MRC-5)/ IC50 cancer cell
From the text: as §1, §2

[6] = system: A549 (lung adenocarcinoma); assay: Cytotoxic activity assay (MTT); format: cell-based, human; details: for IC50: Homo sapiens, A549, 48 h exposure, MTT, read-out: Cell lines, IC50 (μM) A549; for Selectivity Index (SI) values A549: SI = IC50 normal cell (MRC-5)/ IC50 cancer cell
From the text: as §1, §2

[7] = system: HuCCA-1 (cholangiocarcinoma derived from a patient); assay: Cytotoxic activity assay (MTT); format: cell-based, human; details: for IC50: Homo sapiens, HuCC-A1, 48 h exposure, MTT, read-out: Cell lines, IC50 (μM) HuCCA-1; for Selectivity Index (SI) values HuCCA-1: SI = IC50 normal cell (MRC-5)/ IC50 cancer cell
From the text: as §1, §2

[8] = system: MRC-5 normal embryonic lung fibroblast cell line; assay: Cytotoxic activity assay (MTT), normal cells; format: cell-based; details: Homo sapiens, MRC5, 48 h exposure, read-out: Cell lines, IC50 (μM) MRC-5
From the text: as §1, §2

[9] = system: MOLT-3 (T cell acute lymphoblastic leukemia); assay: Cytotoxic activity assay (XTT); format: cell-based, human; details: for IC50: Homo sapiens, MOLT-3, 48 h exposure, XTT, read-out: Cell lines, IC50 (μM) MOLT-3; for Selectivity Index (SI) values MOLT-3: SI = IC50 normal cell (MRC-5)/ IC50 cancer cell
From the text: as §1, §2

[10] = system: HL-60 (acute promyelocytic leukemia); assay: Cytotoxic activity assay (XTT); format: cell-based, human; details: for IC50: Homo sapiens, HL-60, 48 h exposure, XTT, read-out: Cell lines, IC50 (μM) HL-60; for Selectivity Index (SI) values HL-60: SI = IC50 normal cell (MRC-5)/ IC50 cancer cell
From the text: as §1, §2

MDA-MB-231 cells = assay: Cell death analysis, annexin V/7-AAD double staining, flow cytometry; format: cell-based, human; details: MDA-MB-231 cells, 24–48 h treatment
Protocol: Mode of cell death induced by compound 4l was explored using MDA-MB-231 cells by observing change in cell morphology and flow cytometric analysis of annexin V/7-AAD double stained cells. […] Accidental cell death necrosis is typically indicated by the immediate production of bubbles on the cell surface after treatment. […] Additionally, vacuole accumulation was not observed in the treated cells until 48 h after treatment (Fig. 3a). Taken together, we hypothesized that 4l-induced cell death in MDA-MB-231 cells was not processed through necrosis or vacuole-presenting regulated cell death such as autophagy.
Briefly, MDA-MB-231 cells were seeded into 6-well culture plates at 1 × 10^6 cells/well and left in a CO2 incubator for 24 h. Subsequently, the cells were treated with tested compounds for 24–48 h. DMSO was used as a vehicle and its final concentration was kept at 0.2% (v/v) throughout the study. The treated cells were harvested by trypsinization and subjected to annexin V/7-AAD double staining using Muse® Annexin V & Dead Cell Kit as previously described. The stained cells were analyzed by flow cytometric technique using Muse® Cell Analyzer. Population of annexin V-positive cells was defined as early apoptotic cells, and the population positive for both annexin V and 7-AAD was defined as late apoptotic cells. The sequential events of increasing early and late apoptotic cell populations over time is a characteristic of apoptotic cell death.

phospho-FAK (Y397) = assay: Western blot analysis of FAK phosphorylation; format: cell-based, human; details: MDA-MB-231 cells, 16 μM, 24 h
Protocol: We further investigated targets of compound 4l on cell survival signaling pathways including EGFR, FAK, Akt, and ERK in MDA-MB-231 cells. After treatment with 4l at concentrations of 25–50 µM for 24 h, activation (phosphorylation) of the signaling pathways was determined by using western blot analysis.
MDA-MB-231 cells in 6-well culture plates (1 × 10^6 cells/well) were treated with tested compounds for 24 h. Then the cells were harvested and western blot analysis was used to detect alteration of targeted proteins in the treated cells, as previously described. Briefly, the cells in 6-well culture plates were scraped in RIPA cell lysis buffer supplemented with protease/phosphatase inhibitor cocktail before being lysed by sonication. Cell lysates were centrifuged at 12,000×g for 5 min, at 4 °C, to remove cell debris. Total proteins (20 μg) in the cell lysates were separated by SDS-PAGE and blotted to PVDF membranes. The membranes were blocked with 3% (w/v) BSA and incubated overnight at 4 °C with primary antibodies specific to the following proteins: EGFR, phospho-EGFR (Y845), FAK, phospho-FAK (Y397), Akt, phospho-Akt (S473), ERK, and phospho-ERK (T202/Y204). […] Bands of specific proteins were detected by using SuperSignal™ ECL substrates and visualized on X-ray films.

SMILES | IC50 [1] | Selectivity Index (SI) values H69AR [1] | IC50 [2] | Selectivity Index (SI) values HeLa [2] | IC50 [3] | Selectivity Index (SI) values MDA-MB-231 [3] | IC50 [4] | Selectivity Index (SI) values HepG2 [4] | IC50 [5] | Selectivity Index (SI) values T47-D [5] | IC50 [6] | Selectivity Index (SI) values A549 [6] | IC50 [7] | Selectivity Index (SI) values HuCCA-1 [7] | IC50 [8] | IC50 [9] | Selectivity Index (SI) values MOLT-3 [9] | IC50 [10] | Selectivity Index (SI) values HL-60 [10] | other results
C=C1CC[C@H]2C(C)(C)CCC[C@]2(C)[C@H]1CC/C(C)=C/C(=O)N1CCCCC1 [Compound 4n, (E)-3-Methyl-1-(piperidin-1-yl)-5-((1S,4aS,8aS)-5,5,8a-trimethyl-2-methylenedecahydronaphthalen-1-yl)pent-2-en-1-one] | 52.31 ± 0.42 µM | 0.7 | 38.91 ± 0.13 µM | 1.0 | 33.9 ± 1.93 µM | 1.1 | 32.2 ± 1.37 µM | 1.2 | 73 ± 3.31 µM | 0.5 | 41.7 ± 1.43 µM | 0.9 | 41.25 ± 0.19 µM | 0.9 | 38.4 ± 1.2 µM | 21 ± 0.32 µM | 1.8 | 20.5 ± 0.5 µM | 1.9 | 
C=C1CC[C@H]2C(C)(C)CCC[C@]2(C)[C@H]1CC/C(C)=C/C(=O)N(C)OC [Compound 4o, (E)-N-Methoxy-N,3-dimethyl-5-((1S,4aS,8aS)-5,5,8a-trimethyl-2-methylene-decahydronaphthalen-1-yl)pent-2-enamide] | 115.1 ± 0.64 µM | 0.4 | 52.86 ± 0.02 µM | 0.9 | 38.8 ± 0.44 µM | 1.2 | 57.3 ± 1.82 µM | 0.8 | 46.4 ± 1.73 µM | 1.0 | 82.4 ± 0.99 µM | 0.6 | 54.3 ± 1.18 µM | 0.9 | 47.2 ± 0.96 µM | 29.8 ± 1.89 µM | 1.6 | 27.9 ± 1.99 µM | 1.7 | 
C=C1CC[C@H]2C(C)(C)CCC[C@]2(C)[C@H]1CC/C(C)=C/C(=O)N(C)O [Compound 4p, (E)-N-Hydroxy-N,3-dimethyl-5-((1S,4aS,8aS)-5,5,8a-trimethyl-2-methylenedecahydronaphthalen-1-yl)pent-2-enamide] | 96.67 ± 0.08 µM | 0.7 | 33.6 ± 0.54 µM | 2.1 | 24.5 ± 0.61 µM | 2.8 | 64.6 ± 0.76 µM | 1.1 | 35.7 ± 1.01 µM | 2.0 | 61.4 ± 2.16 µM | 1.1 | 58.6 ± 1.2 µM | 1.2 | 69.8 ± 1.24 µM | 3.72 ± 0.26 µM | 18.8 | 6.81 ± 1.99 µM | 10.2 | 
C=C1CC[C@H]2C(C)(C)CCC[C@]2(C)[C@H]1CC/C(C)=C/C(=O)NCC(=O)OC [Compound 4q, Methyl ((E)-3-methyl-5-((1S,4aS,8aS)-5,5,8a-trimethyl-2-methylenedeca-hydronaphthalen-1-yl)pent-2-enoyl)glycinate] | 61.4 ± 2.03 µM | 1.1 | 39.1 ± 0.78 µM | 1.7 | 46.2 ± 1.89 µM | 1.4 | 73.89 ± 0.3 µM | 0.9 | 71.3 ± 2.07 µM | 0.9 | 43.8 ± 3.08 µM | 1.5 | 81.1 ± 2.42 µM | 0.8 | 65.29 ± 0.11 µM | 14.9 ± 0.32 µM | 4.4 | 26 ± 0.55 µM | 2.5 | 
C=C1CCC2C(C)(C)CCCC2(C)C1CCC(C)=CC(=O)NCC(=O)OCC [Compound 4r, Ethyl ((E)-3-methyl-5-((1S,4aS,8aS)-5,5,8a-trimethyl-2-methylenedec-ahydronaphthalen-1-yl)pent-2-enoyl)glycinate] | 45.9 ± 1.8 µM | 1.4 | 36.6 ± 1.44 µM | 1.7 | 23.4 ± 0.81 µM | 2.7 | 61.3 ± 1.12 µM | 1.0 | 87.2 ± 6.02 µM | 0.7 | 67.3 ± 2.09 µM | 0.9 | 72.3 ± 1.93 µM | 0.9 | 63.9 ± 0.65 µM | 11.5 ± 1.13 µM | 5.6 | 23.9 ± 0.59 µM | 2.7 | 
Cl.Cl.Cl.Cl.Nc1cc(N)c(N)cc1N [FAKi, 1,2,4,5-benzenetetraamine tetrahydrochloride, reference compound] |  |  |  |  |  |  |  |  |  |  |  |  |  |  |  |  |  |  |  | mode of cell death (MDA-MB-231 cells): non-apoptotic cell death; FAK phosphorylation (phospho-FAK (Y397)): clearly inhibited
